Experimental findings from a melting point compilation (Tetko et al.; mined from patent text by program, amines drawn as free bases though some values may be those of a salt) are described below.

For `O=C(O)c1cn(-c2cc([N+](=O)[O-])c(F)cc2F)c2c(F)c(F)c(F)cc2c1=O`, the melting point (commonly the temperature, or range, at which the solid turns liquid) is 245 to 255 °C.
The figure for `BrCCCCCCCn1c(-c2ccccc2)nc(-c2ccccc2)c1-c1ccccc1` is 69 to 71 °C; for `CN(Cc1ccc[nH]1)C1CCCN(C(=O)c2ccc(Nc3nccc(Nc4ccc(F)cc4)n3)cc2)C1` (stereo unspecified) it is 148 to 151 °C.
With `Nc1nc(N)nc(Cc2nc3ccccc3n2-c2ccccc2)n1`, the melting point fell in the range of 337 to 340 °C.
In turn, `Cc1cccc(COc2cccc(OCc3cccc(Cl)n3)c2)c1C(=O)O` yielded a melting point of 97 to 98 °C.
On to `COc1ccc2c(=O)[nH]c(-c3ccc(OCCO)c(-c4ccc(S(C)=O)cc4)n3)nc2c1` (stereo unspecified), for which the melting point was 266 to 267 °C.
As for `O=C1OCCN1CCO`, the melting point is 32 to 33 °C.
To `CC(C)OC(=O)NNc1n[nH]c2cc(Cl)ccc12` belongs 184 to 185 °C.
The figure for `Cc1c([N+](=O)[O-])ccc(N)c1C(=O)O` is 183 to 184 °C; for `CCCC1CCC(/C(F)=C(\F)c2ccc(OCC)c(F)c2F)CC1` (stereo unspecified) it is 60 °C; for `COc1ccc(N2CCN(c3ccc([N+](=O)[O-])cc3)CC2)nc1` it is 160 °C.
The compound `CCCCC(Oc1ccc(C#N)cc1C=O)C(=O)OC` (stereo unspecified) registered a melting point of 77 to 79 °C.
To `COc1ccc(C=O)c2cccnc12` belongs 121 to 122 °C; to `O=C1C(CCS(=O)c2ccccc2)C(=O)N(c2ccccc2)N1c1ccccc1` (stereo unspecified), 130 to 132 °C.
As to `Cc1oc(-c2ccccc2)nc1COc1ccc(COc2ccc3ccccc3c2CC#N)cc1`, the melting point fell in the range of 178 to 179 °C.
The figure for `CN1CCN(c2ccc([N+](=O)[O-])cc2F)CC1` is 68 to 70 °C.
To `COc1ccc(C2CC3(C)C(C=CC3(C)O)C3CCC4=CC(=O)CCC4C23)cc1` (stereo unspecified) belongs 192 °C; to `CCOC(=O)COc1cc(F)ccc1C(=O)NCc1cccc([N+](=O)[O-])c1`, 78 to 80 °C; to `COc1ccc(-c2c(C(=O)O)oc3cc(OCc4ccc(OCc5ccc6ccccc6n5)cc4)cc(O)c3c2=O)cc1`, 195 to 196 °C.
`CCCCCCN(O)C(=O)N(C)C` showed a melting point of 19 to 20 °C.
`CC(C)CN1C(=O)[C@@H](CC(N)=O)O[C@H](c2ccccc2Cl)c2cc(Cl)ccc21` (relative stereo) showed a melting point of 271 to 272 °C.
The figure for `CCOC(=O)C1=C2C(=CC3=C(CCCC3)N2O)SC1C` (stereo unspecified) is 135 to 136 °C.
In turn, `Cc1ccc(C(=O)N(C)C)cc1-c1nc(NC2CCN(C)CC2)nc2c1CNC(=O)N2c1c(F)cccc1F` came in with a melting point of 163 to 165 °C.
The compound `NS(=O)(=O)Cc1ccccc1OC(F)(F)F` yielded a melting point of 127 °C.
On to `Cc1cc2c(s1)c(=O)c(S(C)=O)cn2C` (stereo unspecified), for which the melting point is 263 to 264 °C.
The compound `Cc1nccn1C(=O)Nc1ccccc1` gave a melting point of 205 to 207 °C.
To `CC(C)(C(=O)NC1CCCCC1)c1ccc(S(=O)(=O)/C=C/C#N)cc1` belongs 191 to 193 °C.
To `COc1cc2cc(C(=O)NO)sc2cc1OC` belongs 179 to 180 °C; to `Cc1cccc(-c2[nH]c(C(C)C)nc2-c2ccc(F)c(-c3ccc(OCCN4CCCC4=O)cc3)c2)n1`, 95 °C.
`CCOCc1nc2c(N)nc3cccnc3c2n1C1(OC)CCCCC1`: the melting point was in the range of 160 to 161 °C.
To `Cc1ccc(C(=O)NC(NC(=S)Nc2cccc(C(F)(F)F)c2F)C(F)(F)F)cc1` (stereo unspecified) belongs 179 to 181 °C; to `O=C(O)C1=Cc2ccc(Cl)cc2OC1C(F)(F)F` (stereo unspecified), 175 to 178 °C.
The figure for `C=CCOc1ccc(C(=O)C=Cc2cc(OC)cc(OC)c2)cc1` is 88.5 to 90 °C; for `CCc1cc(C(=O)c2ccccc2Cl)c(-n2c(C)nnc2CNC(=O)c2cc3ccccc3n2CC(=O)O)s1` it is 208 to 210 °C; for `COc1ccc(C(=O)c2sc(Nc3ccccc3)nc2NC(=O)Nc2ccc(F)cc2)cc1` it is 177 to 178 °C.
To `O=C(O)c1ccc(C(=O)/C=C/c2ccc(N3CCCC3)c(-c3cccs3)c2)cc1` belongs 212 to 214 °C; to `CCCCCCC1=CC(O)(C(Br)Br)NC1=O` (stereo unspecified), 106 to 109 °C; to `COc1ccc(C(C)=O)cc1NC(=O)C(C)CCl` (stereo unspecified), 92 to 97 °C.
Consider `CCC(CC)c1ccc(Cl)c2nc3n(c12)CCCCN3c1ccc(SC)cc1C`, for which the melting point was in the range of 113 to 115 °C.
To `CCOC(=O)c1ccsc1NC(=O)NCCN1CCN(c2ccccc2)CC1` belongs 117 to 120 °C; to `CN(C)c1nc2c(NCc3ccccc3)ncnc2n1C1OC(CO)C(O)C1O` (stereo unspecified), 152 to 156 °C.
To `CCOC(=O)CNC(=O)c1cc(Cl)ccc1N` belongs 108 to 110 °C; to `O=C(O)c1ccc(-c2ccc(OCc3ccccc3)cc2)cc1`, greater than 300 °C.
The figure for `CCOC(=O)c1cccc(C=C(C(=O)O)c2ccccc2)c1` is 139 to 140 °C; for `O=c1[nH]c2c(cc1-c1noc(C3CC3)n1)CN(Cc1ccccc1)CC2` it is 187 to 190 °C.
`CCCC=Cc1c(C(C)C)nc(C(C)C)c(CO)c1-c1ccc(F)c(F)c1` had a melting point of 105 to 106 °C.
As to `S=c1nc(-c2ccncc2)[nH]n1Cc1ccccc1`, the melting point was in the range of 160 to 162 °C.
To `CCOc1ccc(CN2C(=O)SC(CCCC#Cc3ccc(Cl)cc3)(S(=O)(=O)c3ccc(C)cc3)C2=O)c(OCC)c1` (stereo unspecified) belongs 151 to 153 °C; to `COc1cc2c(Oc3ccc4[nH]c(C)cc4c3)ncnc2cc1OCC1CCN(C)C(=O)C1` (stereo unspecified), 250 to 251 °C.
The figure for `Cc1[nH]c(Cc2ccccc2)nc1CO` is 134 to 138 °C; for `BrC(Br)Cc1cccc2[nH]c(-c3ccccc3)cc12` it is 106 °C; for `Cc1ccc(Cc2cnc(NCCCN(C)c3ncccc3C)[nH]c2=O)cn1` it is 83 to 85 °C.
The figure for `COc1ccc([C@@H]2Sc3cc(Cl)ccc3N(CCCN3CCN(c4ccccc4)CC3)C(=O)[C@@H]2O)cc1` (relative stereo) is 70 to 71 °C; for `COc1ccc(-c2cc3cc(F)c(F)cc3[nH]2)cc1NCc1cccc([N+](=O)[O-])c1` it is 212 to 214 °C.
`CC(C)C[C@H](NC(=O)OCc1ccccc1)C(=O)N[C@@H](Cc1ccccc1)C(=O)CSCc1ccco1` returned a melting point of 77 to 78 °C.
To `CN(C)CCN1C(=O)c2ccc3[nH]c4ccc(N)cc4c3c2C1=O` belongs 217 to 218 °C.
The figure for `COc1cc2c(cc1O)CC(C)(C)NC2` is 170 to 173 °C.
Compound `CCOC(=O)C(C)(C)Oc1ccc(CCc2cc(-c3ccc(C(F)(F)F)cc3)oc2C)cc1` had a melting point of 87 to 88 °C.
With `CCCCOCCOc1ccc(-c2ccc(N3CCCCC3C)c(C=CC(=O)O)c2)cc1` (stereo unspecified), the melting point lay in the range of 106 to 108 °C.
In turn, `O=C1N(C2=NCCS2)c2ccccc2C12SCCS2` gave a melting point of 154 to 157 °C.
In the case of `C[Si]1(C(CN)CC(=O)O)CCCCC1` (stereo unspecified), the melting point lay within 160 to 162 °C.
To `CC(C)NCC(O)COc1nccnc1C1CNCCO1` (stereo unspecified) belongs 74 to 76 °C; to `N#Cc1ccc(NC(=O)CCc2ccc(O)cc2)cc1`, 169 to 172 °C; to `O=C(O)c1cnc(-c2nnn[nH]2)cc1C1CCCCC1`, 278 °C.
The figure for `O=C(O)[C@]12CCCC[C@H]1CCc1ccccc12` (relative stereo) is 142 to 144 °C; for `CS(=O)(=O)N1CCC(Nc2nc(Nc3ccc(F)c(Cl)c3)nc(OCC(F)(F)F)n2)C1` (stereo unspecified) it is 199 to 200 °C; for `CCCCc1nnc(SCc2ccc(Cl)cc2)n1Cc1ccc(OC(C(=O)O)c2ccccc2)cc1` (stereo unspecified) it is 66 to 67 °C.
To `CCCc1c(OCCCCCC(=O)c2c(C)c(C)c(O)c(O)c2C)ccc(C(=O)O)c1O` belongs 169 to 170 °C; to `COC(=O)C(NC(C)=O)NC(=O)c1cc(Cl)cc(Cl)c1` (stereo unspecified), 235 to 237 °C.
Take `CC(C)CCOc1ccc(-n2cc(C(=O)O)cn2)cc1C#N`: the melting point lay within 210 to 211 °C.
To `COc1ccc(-c2nc(NC(=O)c3cccnc3)sc2-c2ccnc(NC(=O)c3cccnc3)c2)cc1` belongs 229 to 232 °C.
The compound `CC(C)(C)c1ccc(-c2cc(-c3ccccc3)c(-c3ccccc3)s2)cc1` showed a melting point of 108 to 112 °C.
The figure for `CCC(CC)NC(=O)C[C@@H](C(=O)NC[C@@H](O)[C@@H](N)Cc1ccccc1)C(C)(C)C` is 155 to 158 °C; for `CC1(C)CCC(C)(C)c2cc(N(Cc3ccc(Cl)cc3)C(=O)Nc3ccc(C(=O)O)cc3)ccc21` it is 126 to 133 °C; for `O=C(Nc1cccc2cc(CBr)cnc12)c1c(Cl)cccc1Cl` it is 223 to 224 °C.
To `Cc1nc(C)c(N2N=C(c3ccc([N+](=O)[O-])cc3)c3cc4c(cc3CC2C)OCO4)o1` (stereo unspecified) belongs 76 to 78 °C; to `CCCn1ncc2c(=O)[nH]c(-c3cc(Br)ccc3OCC)nc21`, 172 to 173 °C; to `CCCn1ncnc1COc1nc2c(nnn2-c2ccccc2)c2ccccc12`, 154 to 156 °C.
For `CCCCOc1c(CNC(=O)OC(C)(C)C)n(CC(C)C)c(=O)c2ccc(-c3nc(C#N)cs3)cc12`, the melting point lay within 160 to 161 °C.
`Cc1cc(C)nc(NC(=S)NS(=O)(=O)c2ccccc2-c2ccccc2)n1` had a melting point of 203 to 204 °C.
`CCCNCCc1ccc(NS(=O)(=O)c2ccc(Br)cc2)cc1` displayed a melting point of 141 to 143 °C.
To `COc1ccccc1Cc1nc2n(c1Cc1ccccc1OC)CCS2` belongs 212 to 213 °C.
The compound `COc1ccc2c(ccc3nc(C(=O)O)cn32)c1` came in with a melting point of 265 to 266 °C.
To `S=c1nc(-c2ccc(Cl)cc2Cl)[nH]n1Cc1ccccc1` belongs 169 to 170 °C; to `CC(=O)NCC1CN(c2ccc(N3CCN(c4nc5ccc(F)c(F)c5o4)CC3)c(F)c2)C(=O)O1` (stereo unspecified), 213 to 214 °C.
To `Cn1c(-c2c(F)cccc2F)nn(-c2ccccc2C(F)(F)F)c1=O` belongs 98 to 99 °C.
